Values of other authors as cited in patent US20030009042A1, “Method for making hydroxy-25-ene-vitamin D compounds” (Bone Care International, Inc., priority 1998, published 2003).
Read-outs that look alike come from different tables or passages of the source.

Experiments:
[1] = oral, 0.5 μg/day, postmenopausal women
[2] = not given; remark: listed apart in the source

| SMILES | intestinal calcium absorption and calcium balance [1] | effects on bone mass or mineral content (dosage levels below 0.5 μg/day) | efficacy in preventing or restoring loss of bone mass or bone mineral content (dosage ranges taught in the '596 Patent) | efficacy (bone mass) (1 μg/day, Japan, population with low calcium intake) | efficacy in increasing bone mass (two μg/day, patients exhibiting senile osteoporosis) | toxicity, percentage of the patients ([2]; 1 μg/day) | toxicity, percentage of the patients ([2]; 2 μg/day) |
| --- | --- | --- | --- | --- | --- | --- | --- |
| C=C1/C(=C\C=C2/CCC[C@]3(C)[C@@H]([C@H](C)CCCC(C)(C)O)CC[C@@H]23)C[C@@H](O)C[C@@H]1O [1α,25-dihydroxyvitamin D3] | improved intestinal calcium absorption as well as calcium balance | no effects are observed | at best, modest efficacy |  |  |  |  |
| C=C1/C(=C\C=C2/CCC[C@]3(C)[C@@H]([C@H](C)CCCC(C)C)CC[C@@H]23)C[C@@H](O)C[C@@H]1O [1α-hydroxyvitamin D3] |  |  |  | efficacy is found | found to have efficacy in increasing bone mass | approximately 20% | approximately 67% |
